Article PMC12073402, “A Selective MAP3K1 Inhibitor Facilitates Discovery of NPM1 as a Member of the Network” (Molecules, 2025)

How the values were obtained:
Assay in all cases: KiNativ kinome profiling in PANC-1 lysate
Assay type in all cases: binding
[1] = target: T1, DGKA (Homo sapiens, UniProt P23743); conditions: ATP
T1 construct: endogenous in cells; host or cells: PANC-1 lysate
Summary of the method: (§1)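 PANC-1 lysates were incubated with 5 μM inhibitor or DMSO, then labeled with a desthiobiotin-ATP acyl-phosphate probe that biotinylates conserved kinase lysines. Tryptic peptides were streptavidin-enriched and quantified by LC-MS/MS, reported as % change in MS signal from duplicate treated and duplicate control samples.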

[2] = system: IKKe, TBK1; conditions: 5 µM; Lys2; DIKPGNIMR
Summary of the method: as §1

[3] = target: T2, CK1a (Homo sapiens, UniProt P48729); conditions: Lys2
T2 construct: endogenous in cells; host or cells: PANC-1 cell lysate
Summary of the method: as §1

[4] = target: T3, SBK (Homo sapiens, UniProt Q52WX2); conditions: Lys2
T3 construct: endogenous in cells; host or cells: PANC-1 cell lysate
Summary of the method: as §1

[5] = target: T4, MASTL (Homo sapiens, UniProt Q96GX5)
T4 construct: endogenous in cells; host or cells: PANC-1
Summary of the method: as §1

[6] = target: T5, ATM (Homo sapiens, UniProt Q13315); conditions: ATP
T5 construct: endogenous in cells; host or cells: PANC-1 cell lysate
Summary of the method: as §1

[7] = target: T6, FAK (Homo sapiens, UniProt Q05397)
T6 construct: endogenous in cells; host or cells: PANC-1 lysate
Summary of the method: as §1

[8] = system: ABL, ARG; conditions: 5 µM
Summary of the method: as §1

[9] = target: T7, AAK1 (Homo sapiens, UniProt Q2M2I8); conditions: Lys2
T7 construct: endogenous in cells; host or cells: PANC-1 cell lysate
Summary of the method: as §1

[10] = target: T8, NDR2 (Homo sapiens, UniProt Q9Y2H1)
T8 construct: endogenous in cells; host or cells: PANC-1 cell lysate
Summary of the method: as §1

[11] = target: T9, PI4K2B (Homo sapiens, UniProt Q8TCG2); conditions: ATP
T9 construct: endogenous in cells; host or cells: PANC-1 cell lysate
Summary of the method: as §1

[12] = target: T10, PIP4K2C (Homo sapiens, UniProt Q8TBX8); conditions: ATP
T10 construct: endogenous in cells; host or cells: PANC-1 cell lysate
Summary of the method: as §1

[13] = target: T11, MAPKAPK3 (Homo sapiens, UniProt Q16644)
T11 construct: endogenous in cells; host or cells: PANC-1 cell lysate
Summary of the method: as §1

[14] = target: T12, MST2 (Homo sapiens, UniProt Q13188); conditions: Lys1
T12 construct: endogenous in cells; host or cells: PANC-1
Summary of the method: as §1

[15] = target: T13, eEF2K (Homo sapiens, UniProt O00418); conditions: ATP
T13 construct: endogenous in cells; host or cells: PANC-1 lysate
Summary of the method: as §1

[16] = target: T14, PKCi (Homo sapiens, UniProt P41743)
T14 construct: endogenous in cells; host or cells: PANC-1 cell lysate
Summary of the method: as §1

[17] = target: T15, PKD1 (Homo sapiens, UniProt Q15139); conditions: Lys1
T15 construct: endogenous in cells; host or cells: PANC-1 cell lysate
Summary of the method: as §1

[18] = target: T16, IRAK1 (Homo sapiens, UniProt P51617); conditions: Lys2
T16 construct: we opted to conduct a kinome screen (KiNativ) in PANC-1 cell lysates; endogenous in cells; host or cells: PANC-1 cell lysate
Summary of the method: as §1

[19] = target: T17, CK1g1 (Homo sapiens, UniProt Q9HCP0); conditions: Lys2
T17 construct: endogenous in cells; host or cells: PANC-1 cell lysate
Summary of the method: as §1

[20] = target: T18, NEK2 (Homo sapiens, UniProt P51955); conditions: Lys2
T18 construct: endogenous in cells; host or cells: PANC-1 cell lysate
Summary of the method: as §1

[21] = target: T19, MET (Homo sapiens, UniProt P08581); conditions: ATP Loop
T19 construct: endogenous in cells; host or cells: PANC-1
Summary of the method: as §1

[22] = target: T20, MAP2K1 (Homo sapiens, UniProt Q02750); conditions: Lys2
T20 construct: endogenous in cells; host or cells: PANC-1 cell lysate
Summary of the method: as §1

[23] = target: T21, MRCKb (Homo sapiens, UniProt Q9Y5S2); conditions: Lys2
T21 construct: endogenous in cells; host or cells: PANC-1
Summary of the method: as §1

[24] = system: CK1d, CK1e; conditions: 5 µM; Lys2; DVKPDNFLMGLGKK
Summary of the method: as §1

[25] = target: T22, NEK7 (Homo sapiens, UniProt Q8TDX7); conditions: Lys1
T22 construct: endogenous in cells; host or cells: PANC-1 cell lysate
Summary of the method: as §1

[26] = target: T23, NEK1 (Homo sapiens, UniProt Q96PY6)
T23 construct: endogenous in cells; host or cells: PANC-1 cell lysate
Summary of the method: as §1

T6 sequence (Q05397 whole entry): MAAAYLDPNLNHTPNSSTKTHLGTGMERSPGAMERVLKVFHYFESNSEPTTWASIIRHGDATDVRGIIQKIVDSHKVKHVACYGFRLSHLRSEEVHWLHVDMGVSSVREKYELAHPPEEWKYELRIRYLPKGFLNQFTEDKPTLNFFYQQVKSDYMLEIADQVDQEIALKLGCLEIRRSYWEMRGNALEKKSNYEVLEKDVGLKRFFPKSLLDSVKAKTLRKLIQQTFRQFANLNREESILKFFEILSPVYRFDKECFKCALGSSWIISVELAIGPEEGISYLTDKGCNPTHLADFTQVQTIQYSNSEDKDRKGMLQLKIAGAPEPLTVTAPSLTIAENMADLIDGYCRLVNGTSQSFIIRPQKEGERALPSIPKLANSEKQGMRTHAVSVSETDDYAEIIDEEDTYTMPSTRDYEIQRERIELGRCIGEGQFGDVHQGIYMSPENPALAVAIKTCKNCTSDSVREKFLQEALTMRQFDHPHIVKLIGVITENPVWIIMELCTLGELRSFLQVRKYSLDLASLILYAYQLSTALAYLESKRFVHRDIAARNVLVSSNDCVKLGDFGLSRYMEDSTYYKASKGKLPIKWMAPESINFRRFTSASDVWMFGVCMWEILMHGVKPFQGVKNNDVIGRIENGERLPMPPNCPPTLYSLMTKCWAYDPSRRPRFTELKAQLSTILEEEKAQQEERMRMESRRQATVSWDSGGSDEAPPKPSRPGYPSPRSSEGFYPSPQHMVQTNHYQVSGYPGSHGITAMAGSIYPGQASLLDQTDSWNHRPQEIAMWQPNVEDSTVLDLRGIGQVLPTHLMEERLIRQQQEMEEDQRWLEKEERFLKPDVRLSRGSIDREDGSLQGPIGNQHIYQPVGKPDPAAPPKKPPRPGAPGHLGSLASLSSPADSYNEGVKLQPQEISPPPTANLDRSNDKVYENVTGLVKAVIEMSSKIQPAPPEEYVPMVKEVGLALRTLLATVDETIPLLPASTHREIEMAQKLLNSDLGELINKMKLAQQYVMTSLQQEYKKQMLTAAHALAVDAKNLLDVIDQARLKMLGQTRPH
T14 sequence (P41743 whole entry): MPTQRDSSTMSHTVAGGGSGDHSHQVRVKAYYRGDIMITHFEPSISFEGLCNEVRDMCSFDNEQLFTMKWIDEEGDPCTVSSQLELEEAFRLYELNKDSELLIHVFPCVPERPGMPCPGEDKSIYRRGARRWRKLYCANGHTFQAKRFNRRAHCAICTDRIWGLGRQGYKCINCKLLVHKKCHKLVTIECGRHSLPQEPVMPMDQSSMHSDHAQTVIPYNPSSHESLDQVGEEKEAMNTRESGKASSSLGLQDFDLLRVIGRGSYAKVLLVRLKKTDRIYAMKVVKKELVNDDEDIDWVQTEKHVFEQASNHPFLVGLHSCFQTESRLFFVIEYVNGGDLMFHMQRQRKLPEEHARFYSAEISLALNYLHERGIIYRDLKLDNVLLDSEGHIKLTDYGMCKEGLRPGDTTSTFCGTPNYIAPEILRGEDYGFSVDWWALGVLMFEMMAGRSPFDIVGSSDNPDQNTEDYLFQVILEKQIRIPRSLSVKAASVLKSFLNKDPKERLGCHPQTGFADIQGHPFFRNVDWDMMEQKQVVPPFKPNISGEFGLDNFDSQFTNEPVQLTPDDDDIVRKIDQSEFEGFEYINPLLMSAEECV
T11 sequence (Q16644 whole entry): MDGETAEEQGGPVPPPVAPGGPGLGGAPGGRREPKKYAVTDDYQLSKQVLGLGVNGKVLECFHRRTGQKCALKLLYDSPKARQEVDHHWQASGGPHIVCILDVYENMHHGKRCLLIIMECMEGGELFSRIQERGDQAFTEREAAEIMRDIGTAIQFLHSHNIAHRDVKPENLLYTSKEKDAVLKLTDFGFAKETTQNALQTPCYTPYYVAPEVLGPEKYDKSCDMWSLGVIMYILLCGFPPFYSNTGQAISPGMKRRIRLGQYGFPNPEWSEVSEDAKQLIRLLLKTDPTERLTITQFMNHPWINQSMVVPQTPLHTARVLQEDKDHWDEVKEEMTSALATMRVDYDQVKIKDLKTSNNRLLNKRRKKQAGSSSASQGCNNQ
T10 sequence (Q8TBX8 whole entry): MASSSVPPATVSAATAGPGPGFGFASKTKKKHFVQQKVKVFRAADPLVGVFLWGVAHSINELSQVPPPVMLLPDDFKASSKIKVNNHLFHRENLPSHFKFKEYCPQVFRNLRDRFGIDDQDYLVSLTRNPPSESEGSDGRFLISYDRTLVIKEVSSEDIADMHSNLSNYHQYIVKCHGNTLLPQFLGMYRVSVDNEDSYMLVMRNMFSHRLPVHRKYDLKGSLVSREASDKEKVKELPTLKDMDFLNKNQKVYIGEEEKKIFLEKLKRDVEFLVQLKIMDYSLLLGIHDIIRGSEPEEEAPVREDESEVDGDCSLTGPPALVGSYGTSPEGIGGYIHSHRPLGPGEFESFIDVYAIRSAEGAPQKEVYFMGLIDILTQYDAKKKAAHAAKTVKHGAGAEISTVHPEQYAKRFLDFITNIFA
T8 sequence (Q9Y2H1 whole entry): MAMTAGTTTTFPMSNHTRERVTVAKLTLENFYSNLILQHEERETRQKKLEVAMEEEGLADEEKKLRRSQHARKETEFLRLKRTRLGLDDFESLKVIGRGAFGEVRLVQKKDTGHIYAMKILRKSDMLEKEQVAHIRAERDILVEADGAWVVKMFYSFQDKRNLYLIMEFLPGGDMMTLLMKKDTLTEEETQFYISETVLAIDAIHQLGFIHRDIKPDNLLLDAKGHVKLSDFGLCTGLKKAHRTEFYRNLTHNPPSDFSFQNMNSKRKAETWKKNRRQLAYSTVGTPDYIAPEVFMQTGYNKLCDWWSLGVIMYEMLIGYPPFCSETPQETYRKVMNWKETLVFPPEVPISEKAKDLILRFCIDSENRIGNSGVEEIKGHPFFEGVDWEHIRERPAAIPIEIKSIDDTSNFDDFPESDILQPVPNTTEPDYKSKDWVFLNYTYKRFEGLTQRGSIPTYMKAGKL
T4 sequence (Q96GX5 whole entry): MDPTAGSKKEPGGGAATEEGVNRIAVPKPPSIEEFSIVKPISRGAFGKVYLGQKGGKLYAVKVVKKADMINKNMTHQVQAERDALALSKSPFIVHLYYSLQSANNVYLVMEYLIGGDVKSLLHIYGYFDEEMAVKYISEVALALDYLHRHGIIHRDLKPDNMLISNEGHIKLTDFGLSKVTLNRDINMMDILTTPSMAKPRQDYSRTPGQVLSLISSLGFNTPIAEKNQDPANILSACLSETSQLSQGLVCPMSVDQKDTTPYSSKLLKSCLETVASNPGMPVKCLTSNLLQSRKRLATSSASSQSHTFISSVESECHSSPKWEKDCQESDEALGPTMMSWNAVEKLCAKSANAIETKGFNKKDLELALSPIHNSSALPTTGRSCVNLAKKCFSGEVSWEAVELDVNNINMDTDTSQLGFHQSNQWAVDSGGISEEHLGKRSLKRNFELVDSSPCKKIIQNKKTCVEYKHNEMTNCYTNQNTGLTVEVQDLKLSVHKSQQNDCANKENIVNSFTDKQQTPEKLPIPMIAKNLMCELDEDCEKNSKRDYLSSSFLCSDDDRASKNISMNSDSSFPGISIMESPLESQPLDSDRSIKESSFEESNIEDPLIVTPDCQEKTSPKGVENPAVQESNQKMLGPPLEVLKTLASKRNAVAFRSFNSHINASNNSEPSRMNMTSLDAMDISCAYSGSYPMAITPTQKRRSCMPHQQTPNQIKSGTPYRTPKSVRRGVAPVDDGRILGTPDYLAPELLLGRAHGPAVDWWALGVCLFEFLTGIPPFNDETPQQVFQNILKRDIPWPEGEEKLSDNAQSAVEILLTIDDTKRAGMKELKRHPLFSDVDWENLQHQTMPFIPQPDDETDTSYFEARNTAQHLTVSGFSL
T23 sequence (Q96PY6 whole entry): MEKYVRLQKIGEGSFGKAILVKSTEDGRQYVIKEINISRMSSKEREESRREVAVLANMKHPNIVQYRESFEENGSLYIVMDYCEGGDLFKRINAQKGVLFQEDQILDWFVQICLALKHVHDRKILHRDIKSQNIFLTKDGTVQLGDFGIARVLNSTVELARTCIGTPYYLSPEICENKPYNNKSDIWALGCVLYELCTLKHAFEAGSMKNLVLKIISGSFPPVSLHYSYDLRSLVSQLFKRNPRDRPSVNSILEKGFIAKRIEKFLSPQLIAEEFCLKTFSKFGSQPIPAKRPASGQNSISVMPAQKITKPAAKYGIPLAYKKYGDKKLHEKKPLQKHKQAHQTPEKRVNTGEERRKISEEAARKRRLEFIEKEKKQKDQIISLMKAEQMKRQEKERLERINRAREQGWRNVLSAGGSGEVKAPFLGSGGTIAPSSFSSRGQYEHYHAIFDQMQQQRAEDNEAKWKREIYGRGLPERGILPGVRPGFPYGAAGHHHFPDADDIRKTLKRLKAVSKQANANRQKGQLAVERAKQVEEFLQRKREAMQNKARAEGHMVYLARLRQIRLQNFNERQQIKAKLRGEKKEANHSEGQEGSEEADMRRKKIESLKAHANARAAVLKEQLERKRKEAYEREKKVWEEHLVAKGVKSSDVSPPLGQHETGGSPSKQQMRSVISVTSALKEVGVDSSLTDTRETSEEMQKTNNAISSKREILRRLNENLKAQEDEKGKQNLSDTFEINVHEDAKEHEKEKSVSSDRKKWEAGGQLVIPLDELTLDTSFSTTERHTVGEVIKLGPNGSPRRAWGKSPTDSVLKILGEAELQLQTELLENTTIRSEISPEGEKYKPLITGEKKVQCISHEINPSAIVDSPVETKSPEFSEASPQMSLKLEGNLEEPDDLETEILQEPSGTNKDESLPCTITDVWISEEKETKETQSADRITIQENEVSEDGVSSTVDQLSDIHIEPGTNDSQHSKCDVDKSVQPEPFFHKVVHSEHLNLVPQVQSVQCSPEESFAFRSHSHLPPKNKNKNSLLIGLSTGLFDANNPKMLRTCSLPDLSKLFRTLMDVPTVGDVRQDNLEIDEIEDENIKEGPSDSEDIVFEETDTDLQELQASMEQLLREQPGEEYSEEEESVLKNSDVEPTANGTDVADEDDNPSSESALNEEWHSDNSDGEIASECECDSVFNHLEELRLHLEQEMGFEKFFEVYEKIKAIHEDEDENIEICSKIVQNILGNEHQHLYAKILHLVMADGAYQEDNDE

## Cn1cc(-c2cnc3ccc(NC(=O)Nc4ccc(F)c(C(F)(F)F)c4)cc3n2)cn1 [51-106, 1-(4-Fluoro-3-(trifluoromethyl)phenyl)-3-(3-(1-methyl-1H-pyrazol-4-yl)quinoxalin-6-yl)urea]
[1]
  inhibition at 5 µM: ≤ 0%
[2]
  % Inhibition: 10.6%
[3]
  inhibition at 5 µM: 11.1%
[4]
  inhibition at 5 µM: ≤ 0%
[5]; ATP Loop, GAFGKVYLGQK
  inhibition at 5 µM: 8.6%
[5]; Lys1, LYAVKVVK
  inhibition at 5 µM: ≤ 0%
[6]
  inhibition at 5 µM: 7.4%
[7]; ATP Loop, YMEDSTYYKASK
  inhibition at 5 µM: 22.5%
[7]; Lys1, CIGEGQFGDVHQGIYMSPENPALAVAIKTCK
  inhibition at 5 µM: 2.8%
[8]; Activation Loop, LMTGDTYTAHAGAKFPIK
  % Inhibition: NB (NB = No Binding (≤ 0))
[8]; Lys1, YSLTVAVKTLK
  % Inhibition: 3.5%
[8]; Lys1, YSLTVAVKTLKEDTMEVEEFLK
  % Inhibition: NB (NB = No Binding (≤ 0))
[9]
  inhibition at 5 µM: 3.5%
[10]; Lys1, DTGHIYAMKILR
  inhibition at 5 µM: ≤ 0%
[10]; Lys2, DIKPDNLLLDAK
  inhibition at 5 µM: 7.6%
[11]
  inhibition at 5 µM: 6.4%
[12]; TLVIKEVSSEDIADMHSNLSNYHQYIVK
  inhibition at 5 µM: 21.8%
[12]; VKELPTLKDMDFLNK
  inhibition at 5 µM: ≤ 0%
[13]; 5 µM, Lys1, CALKLLYDSPK
  % Inhibition: NB (NB = No Binding (≤ 0))
[13]; ATP Loop, […]
  inhibition at 5 µM: ≤ 0%
[14]
  inhibition at 5 µM: 0.8%
[15]
  inhibition at 5 µM: 6.3%
[16]; 5 µM, Lys2, DLKLDNVLLDSEGHIK
  % Inhibition: NB (NB = No Binding (≤ 0))
[16]; Lys1, […]
  inhibition at 5 µM: ≤ 0%
[17]
  inhibition at 5 µM: ≤ 0%
[18]
  inhibition at 5 µM: ≤ 0%
[19]
  inhibition at 5 µM: ≤ 0%
[20]
  inhibition at 5 µM: ≤ 0%
[21]
  inhibition at 5 µM: 8.3%
[22]
  inhibition at 5 µM: 11%
[23]
  inhibition at 5 µM: ≤ 0%
[24]
  % Inhibition: NB (NB = No Binding (≤ 0))
[25]
  inhibition at 5 µM: 10.3%
[26]; 5 µM, Lys1, QYVIKEINISR
  % Inhibition: NB (NB = No Binding (≤ 0))
[26]; Lys2, […]
  inhibition at 5 µM: ≤ 0%
